These results are taken from paper PMC12548382, “Discovery of a potent covalent inhibitor that unusually distorts the catalytic dyad of SARS-CoV-2 main protease” (Journal of Virology, 2025).

Test [1] relates to SARS-CoV-2. The experiment in a line: SARS-CoV-2 viral load reduction assay in VeroE6 cells. The test is classed as cell-based. As to conditions: 10 µM, MOI 0.1, 48 hpi, qRT-PCR of supernatant. Here is the method: Fig 3 In vitro antiviral activity of selected compounds. VeroE6 cells were infected with SARS-CoV-2 (multiplicity of infection [MOI] of 0.1) and treated with various concentrations of H102, PF-07321332, GC376, or vehicle control. Viral RNA load in the cell culture supernatant samples was quantified by qRT-PCR. All experiments were performed in triplicate, and the values are presented as mean ± SD. P-values were calculated using Student’s t-test to compare each compound candidate with vehicle control. *P < 0.05.
Viral load reduction assay was performed for the evaluation of antiviral activity as we described previously ([34]). Briefly, SARS-CoV-2-infected VeroE6 cells were treated with different concentrations of compounds or dimethyl sulfoxide (DMSO) control. Then, cell culture supernatant samples were collected at 48 h post-inoculation (hpi) for qRT-PCR analysis of viral RNA load. Culture supernatant was lysed with buffer AVL and then extracted for total RNA with the QIAamp viral RNA mini kit (Qiagen). qRT-PCR was used for quantitation of SARS-CoV-2 viral load using the QuantiNova Probe RT-PCR kit (Qiagen) with a LightCycler 480 Real-Time PCR System (Roche). […]
(In general: Real-time PCR tracks product formation cycle by cycle.)

Test [2] concerns the target SARS-CoV-2 M^pro (Severe acute respiratory syndrome coronavirus 2, UniProt P0DTD1). Briefly: SARS-CoV-2 M^pro enzyme inhibition assay (FRET substrate). The test is classed as biochemical. As to conditions: for IC50: 150 nM enzyme, 30 min preincubation, 25 µM substrate, mean ± SD.
Test [3] has as its system SARS-CoV M^pro. As to conditions: SARS-CoV M^pro ref 27; cited from earlier work.

The structures appear in SMILES notation.

For the compound `CC(C)C[C@H](NC(=O)OCc1ccccc1)C(=O)N[C@@H](C[C@@H]1CCNC1=O)C(O)S(=O)(=O)[O-].[Na+]` (some centres unmarked) [GC376], the “reduction in viral RNA load” value in test [1] is recorded as 3.93 log10.

Regarding `COc1ccc(C[C@H](NC(=O)[C@H](C)NC(=O)OC(C)(C)C)C(=O)N[C@@H](C[C@@H]2CCNC2=O)C(=O)C(=O)Nc2cccc(C(C)=O)c2)cc1` [H94], the midpoint of inhibition in test [2], the IC50, lay at 24.8 ± 2.3 µM.

On to `COc1ccc(C[C@H](NC(=O)[C@H](C)NC(=O)c2cnc(-c3ccc(C(C)=O)cc3)s2)C(=O)N[C@@H](C[C@@H]2CCNC2=O)C(=O)C(=O)Nc2cccc(C(C)=O)c2)cc1` [H96], for which the IC50 (commonly the concentration that inhibits the measured activity by half) in test [2] was found to be 9.4 ± 3 µM. Also, the “increase in M^pro inhibitory potency compared to compound 17” value in test [2] (vs compound 17) was more than 10 fold.

For `COc1ccc(C[C@H](NC(=O)[C@@H](NC(=O)OC(C)(C)C)C(C)(C)C)C(=O)N[C@@H](C[C@@H]2CCNC2=O)C(=O)C(=O)Nc2cccc(C(C)=O)c2)cc1` [H97], inhibition in test [2] was half-maximal at 6.3 ± 2.7 µM (IC50).

On to `COc1ccc(C[C@H](NC(=O)[C@@H](NC(=O)OC(C)(C)C)C(C)C)C(=O)N[C@@H](C[C@@H]2CCNC2=O)C(=O)C(=O)Nc2cccc(C(C)=O)c2)cc1` [H98], for which, in test [2], inhibition was half-maximal at 8.7 ± 2.5 µM (IC50).

As to `COc1ccc(C[C@H](NC(=O)[C@H](CC(C)C)NC(=O)OC(C)(C)C)C(=O)N[C@@H](C[C@@H]2CCNC2=O)C(=O)C(=O)Nc2cccc(C(C)=O)c2)cc1` [H99], the midpoint of inhibition in test [2], the IC50, lay at 9.9 ± 4.7 µM.

On to `CC(=O)c1cccc(NC(=O)C(=O)[C@H](C[C@@H]2CCNC2=O)NC(=O)[C@H](CC(C)C)NC(=O)[C@@H](NC(=O)OC(C)(C)C)C(C)(C)C)c1` [H101], for which it took 3.8 ± 0.4 µM to reach half-maximal inhibition in test [2] (IC50).

In the case of `COC[C@H](NC(=O)OC(C)(C)C)C(=O)N[C@@H](Cc1ccc(OC)cc1)C(=O)N[C@@H](C[C@@H]1CCNC1=O)C(=O)C(=O)Nc1cccc(C(C)=O)c1` [H137], the IC50 in test [2] came to 28.9 ± 3.8 µM.

With `CC(C)(C)[C@H](NC(=O)C(F)(F)F)C(=O)N1C[C@H]2[C@@H]([C@H]1C(=O)N[C@H](C#N)C[C@@H]1CCNC1=O)C2(C)C` [PF-07321332, Nirmatrelvir], the “reduction in viral RNA load” value in test [1] is on record as 3.48 log10.

For the compound `COC(=O)[C@H](C[C@@H]1CCNC1=O)NC(=O)OC(C)(C)C` [compound 3], the IC50 in test [3] is 300 nM.
